Like-named read-outs stand apart in the source and are kept apart here.
Experiments:
[1] = target: T1, Citrate Lyase (Mus musculus, UniProt Q91V92); experiment: In vitro effect on citrate lyase; format: biochemical; settings: Table 2, N = 6, x ± S.D., control 30.5 mg of citrate hydrolyzed/gm wet tissue/30 min.
T1 construct: 30.5 mg of citrate hydrolyzed/gm wet tissue/30 min; from tissue
T1 sequence (Q91V92 1-1091): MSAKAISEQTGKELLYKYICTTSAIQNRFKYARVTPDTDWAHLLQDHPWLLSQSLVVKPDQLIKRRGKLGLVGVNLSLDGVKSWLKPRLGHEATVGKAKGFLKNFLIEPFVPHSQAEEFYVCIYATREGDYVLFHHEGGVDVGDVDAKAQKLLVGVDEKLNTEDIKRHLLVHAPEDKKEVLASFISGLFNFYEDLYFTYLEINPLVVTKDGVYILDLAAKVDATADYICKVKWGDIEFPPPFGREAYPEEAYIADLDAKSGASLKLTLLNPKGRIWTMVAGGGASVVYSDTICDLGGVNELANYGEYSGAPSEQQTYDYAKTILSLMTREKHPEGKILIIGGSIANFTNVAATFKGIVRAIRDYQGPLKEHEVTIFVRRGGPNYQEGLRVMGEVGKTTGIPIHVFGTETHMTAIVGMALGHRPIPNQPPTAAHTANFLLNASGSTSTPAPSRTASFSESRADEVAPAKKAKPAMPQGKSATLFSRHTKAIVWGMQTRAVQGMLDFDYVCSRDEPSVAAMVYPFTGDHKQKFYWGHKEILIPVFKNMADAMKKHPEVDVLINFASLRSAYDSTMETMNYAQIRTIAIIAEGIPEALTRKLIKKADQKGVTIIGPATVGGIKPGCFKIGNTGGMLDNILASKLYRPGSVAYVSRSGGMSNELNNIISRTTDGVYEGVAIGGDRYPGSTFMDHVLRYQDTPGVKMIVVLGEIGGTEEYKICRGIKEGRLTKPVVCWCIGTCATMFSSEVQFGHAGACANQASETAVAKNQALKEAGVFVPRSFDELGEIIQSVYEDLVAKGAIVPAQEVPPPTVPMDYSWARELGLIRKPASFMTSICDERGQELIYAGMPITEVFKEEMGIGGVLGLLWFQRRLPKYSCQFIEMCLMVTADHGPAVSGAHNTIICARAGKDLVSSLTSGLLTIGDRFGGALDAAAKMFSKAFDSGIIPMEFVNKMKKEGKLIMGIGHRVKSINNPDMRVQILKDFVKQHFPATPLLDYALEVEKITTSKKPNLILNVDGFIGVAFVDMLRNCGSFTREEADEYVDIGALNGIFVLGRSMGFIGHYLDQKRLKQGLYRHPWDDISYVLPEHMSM

[2] = test system: serum triglyceride; experiment: Serum triglyceride levels of male mice (Hycel commercial kits); format: in vivo, male CF1 mice; settings: Mus musculus, ip, 336 h
Protocol: (§1) For hypolipidemic activity, the compounds were tested at 20 mg/kg/day administered I.P. to male CF1 mice (~30 g). On days 9 and 16 blood was collected by tail-vein bleeding. Serum cholesterol was determined by the Liebermann-Burchard reaction. Serum triglyceride levels were determined using the Hycel commercial kits on a separate group of mice, which were bled on day 14.

[3] = target: T2, Fatty Acid Synthetase (Mus musculus, UniProt P19096); experiment: In vitro effect on fatty acid synthetase; format: biochemical; settings: Table 2, N = 6, x ± S.D.
T2 construct: gm wet tissue/30 min; from tissue
T2 sequence (P19096 whole entry): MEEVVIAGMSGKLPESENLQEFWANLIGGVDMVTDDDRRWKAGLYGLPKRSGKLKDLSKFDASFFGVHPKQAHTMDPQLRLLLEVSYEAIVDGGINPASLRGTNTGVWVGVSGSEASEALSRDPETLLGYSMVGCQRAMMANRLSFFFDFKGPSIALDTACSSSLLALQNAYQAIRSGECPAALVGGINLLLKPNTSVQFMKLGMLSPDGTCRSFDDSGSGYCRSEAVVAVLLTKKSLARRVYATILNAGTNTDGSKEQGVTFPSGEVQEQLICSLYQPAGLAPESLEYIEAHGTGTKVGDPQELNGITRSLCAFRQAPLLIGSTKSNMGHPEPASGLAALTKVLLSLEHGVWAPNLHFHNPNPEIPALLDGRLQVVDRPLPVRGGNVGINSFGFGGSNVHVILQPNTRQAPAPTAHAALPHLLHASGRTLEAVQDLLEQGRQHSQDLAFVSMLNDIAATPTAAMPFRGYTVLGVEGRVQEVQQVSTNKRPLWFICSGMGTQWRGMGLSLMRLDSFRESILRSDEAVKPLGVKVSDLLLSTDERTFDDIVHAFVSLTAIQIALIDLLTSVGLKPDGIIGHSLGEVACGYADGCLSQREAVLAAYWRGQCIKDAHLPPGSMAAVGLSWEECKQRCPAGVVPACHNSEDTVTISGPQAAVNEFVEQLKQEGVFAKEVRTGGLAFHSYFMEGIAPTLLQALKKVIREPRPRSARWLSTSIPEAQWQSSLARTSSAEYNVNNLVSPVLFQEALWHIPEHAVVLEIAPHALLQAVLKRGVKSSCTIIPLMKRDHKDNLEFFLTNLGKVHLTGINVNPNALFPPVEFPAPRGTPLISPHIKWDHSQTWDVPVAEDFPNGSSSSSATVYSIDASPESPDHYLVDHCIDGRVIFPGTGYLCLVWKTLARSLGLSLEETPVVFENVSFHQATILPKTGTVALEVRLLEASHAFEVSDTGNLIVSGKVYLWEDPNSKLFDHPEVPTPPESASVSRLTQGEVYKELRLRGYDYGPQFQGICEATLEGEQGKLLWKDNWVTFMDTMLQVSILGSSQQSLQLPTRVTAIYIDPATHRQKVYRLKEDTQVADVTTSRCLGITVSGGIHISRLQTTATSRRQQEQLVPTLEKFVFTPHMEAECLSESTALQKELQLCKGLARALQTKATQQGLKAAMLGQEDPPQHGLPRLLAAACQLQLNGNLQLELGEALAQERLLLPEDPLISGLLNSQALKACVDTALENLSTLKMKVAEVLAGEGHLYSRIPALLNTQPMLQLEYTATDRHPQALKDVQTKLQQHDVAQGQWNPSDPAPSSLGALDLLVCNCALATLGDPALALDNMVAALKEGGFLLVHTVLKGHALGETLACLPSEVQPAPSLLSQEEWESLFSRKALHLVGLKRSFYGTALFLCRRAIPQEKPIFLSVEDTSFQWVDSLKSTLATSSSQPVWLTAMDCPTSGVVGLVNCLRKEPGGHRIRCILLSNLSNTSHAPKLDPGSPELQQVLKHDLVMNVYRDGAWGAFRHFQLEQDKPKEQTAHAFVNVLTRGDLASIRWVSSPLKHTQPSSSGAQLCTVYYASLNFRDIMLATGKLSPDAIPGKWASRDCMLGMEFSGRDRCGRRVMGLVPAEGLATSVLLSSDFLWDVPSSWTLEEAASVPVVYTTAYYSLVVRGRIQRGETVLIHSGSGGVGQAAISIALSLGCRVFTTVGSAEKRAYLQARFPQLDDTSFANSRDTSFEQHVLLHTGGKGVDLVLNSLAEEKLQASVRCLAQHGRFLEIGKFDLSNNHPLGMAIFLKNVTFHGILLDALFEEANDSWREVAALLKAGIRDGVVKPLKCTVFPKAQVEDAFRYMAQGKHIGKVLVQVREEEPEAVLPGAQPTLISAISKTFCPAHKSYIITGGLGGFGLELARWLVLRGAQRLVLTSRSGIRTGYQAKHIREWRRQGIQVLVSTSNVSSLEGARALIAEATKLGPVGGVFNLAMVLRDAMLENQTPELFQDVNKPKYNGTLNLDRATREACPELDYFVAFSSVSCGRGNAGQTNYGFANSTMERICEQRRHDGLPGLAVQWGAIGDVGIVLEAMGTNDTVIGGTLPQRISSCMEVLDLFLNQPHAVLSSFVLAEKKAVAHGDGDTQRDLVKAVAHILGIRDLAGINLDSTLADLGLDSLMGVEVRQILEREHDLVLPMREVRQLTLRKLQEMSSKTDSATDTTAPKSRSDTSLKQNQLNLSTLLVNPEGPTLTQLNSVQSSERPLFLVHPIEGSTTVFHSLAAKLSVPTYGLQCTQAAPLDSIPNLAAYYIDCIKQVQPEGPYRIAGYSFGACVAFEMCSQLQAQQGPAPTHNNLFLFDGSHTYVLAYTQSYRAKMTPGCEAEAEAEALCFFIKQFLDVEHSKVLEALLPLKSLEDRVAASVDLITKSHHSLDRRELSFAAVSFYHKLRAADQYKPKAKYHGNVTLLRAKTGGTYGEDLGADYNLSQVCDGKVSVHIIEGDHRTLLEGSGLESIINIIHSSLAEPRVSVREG

[4] = test system: serum cholesterol; experiment: Serum cholesterol of male CF1 mice (Liebermann-Burchard reaction); format: in vivo; settings: Mus musculus, ip
Protocol: as §1

[5] = target: T3, Acetyl-CoA Synthetase (Mus musculus, UniProt Q9QXG4); experiment: In vitro acetyl coenzyme A synthetase activity (method of Goodridge); format: biochemical, mice; settings: for Acetyl-CoA Synthetase: Table 2, N = 6, x ± S.D., control 28.5 mg acetyl CoA formed/gm wet tissue/30 min.; for in vitro AcCoA synthetase: Table 3, N = 6, control 10.8 mg/g wet tissue
T3 construct: gm wet tissue/30 min; from tissue
T3 sequence (Q9QXG4 whole entry): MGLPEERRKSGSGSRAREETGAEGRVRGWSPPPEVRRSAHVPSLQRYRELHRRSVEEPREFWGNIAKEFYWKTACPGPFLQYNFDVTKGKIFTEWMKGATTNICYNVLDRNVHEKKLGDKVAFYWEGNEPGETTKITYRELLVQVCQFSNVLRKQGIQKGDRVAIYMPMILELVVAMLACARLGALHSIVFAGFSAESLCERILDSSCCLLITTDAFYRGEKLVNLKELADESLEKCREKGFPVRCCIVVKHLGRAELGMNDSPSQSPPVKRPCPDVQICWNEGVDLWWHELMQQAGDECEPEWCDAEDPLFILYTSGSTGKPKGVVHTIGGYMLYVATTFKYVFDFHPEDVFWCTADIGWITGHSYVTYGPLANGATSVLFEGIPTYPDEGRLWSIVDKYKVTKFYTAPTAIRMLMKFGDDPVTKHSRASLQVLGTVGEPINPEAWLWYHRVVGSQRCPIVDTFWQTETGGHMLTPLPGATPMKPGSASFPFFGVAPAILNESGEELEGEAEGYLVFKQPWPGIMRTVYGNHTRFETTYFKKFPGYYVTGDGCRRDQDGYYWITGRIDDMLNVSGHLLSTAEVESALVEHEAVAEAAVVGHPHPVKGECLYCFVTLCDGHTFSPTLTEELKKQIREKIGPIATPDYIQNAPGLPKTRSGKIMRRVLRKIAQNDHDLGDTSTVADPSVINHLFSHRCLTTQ

[6] = target: T4, Acetyl-CoA Carboxylase (Mus musculus, UniProt Q5SWU9); experiment: In vitro acetyl coenzyme A carboxylase activity (method of Greenspan and Lowenstein); format: biochemical; settings: Table 2, N = 6, x ± S.D., control 32,010 dpm/gm wet tissue/30 min.
T4 construct: 32,010 dpm/gm wet tissue/30 min; from tissue

[7] = test system: ovariectomized immature females; experiment: Uterotropic effects in ovariectomized immature females; format: in vivo, mice; settings: 20 mg/kg
[8] = Hypertrophy of the adrenal; parameters: species or system mice; settings: mouse, in vivo
[9] = Size of vas deferens, vesicular or testes after 16 day treatment in mice; format: in vivo; settings: 16 day treatment at 10 (mg/kg)/day
[10] = Acute toxicity (LD50) in mice; format: in vivo; settings: mouse, in vivo
Text: (§2) They also are non-toxic. […] Moreover, there is no evidence that the weight of any of the major organs is altered as a result of treatment with compounds used in the invention.

[11] = test system: mice; experiment: Acute toxicity (LD50) in mice; format: in vivo; settings: 2 g/kg
Text: as §2

[12] = Table 1, 20 mg/kg/day I.P., male mice, N = 6, 14th day, control value 137 mg %, read-out: Serum Triglyceride, 14th day
[13] = 216 h, Table 1, 20 mg/kg/day I.P., male CF1 mice, N = 6, 9th day, control value 118 mg %, read-out: Serum Cholesterol, 9th day
[14] = 384 h, Table 1, 20 mg/kg/day I.P., male CF1 mice, N = 6, 16th day, control value 122 mg %, read-out: Serum Cholesterol, 16th day
[15] = Table 3, mice, N = 6, control 138 mg %, read-out: serum triglycerides
[16] = 216 h, Table 3, mice, N = 6, 9th day, control 115 mg %, read-out: serum cholesterol, 9th day
[17] = 384 h, Table 3, mice, N = 6, 16th day, control 118 mg %, read-out: serum cholesterol, 16th day

| Compound | Citrate Lyase [1] [% Control] | Fatty Acid Synthetase [3] [% Control] | Acetyl-CoA Synthetase [5] [% Control] | Acetyl-CoA Carboxylase [6] [% Control] | response vs control in vivo at 20 mg/kg/day [2, 12] [%] | response vs control in vivo at 20 mg/kg/day [4, 13] [%] | response vs control in vivo at 20 mg/kg/day [4, 14] [%] | response vs control in vivo at 20 mg/kg/day [2, 15] [%] | uterotropic effects [7] | response vs control in vivo at 20 mg/kg/day [4, 16] [%] | response vs control in vivo at 20 mg/kg/day [4, 17] [%] | in vitro AcCoA synthetase [5] [% Control] | hypertrophy of the adrenal [8] | decrease in the size of the vas deferens, vesicular or testes [9] | LD50 [10] [mg/kg] | deaths [11] |
| --- | --- | --- | --- | --- | --- | --- | --- | --- | --- | --- | --- | --- | --- | --- | --- | --- |
| O=C1NS(=O)(=O)c2ccccc21 [Saccharin] | 65 ± 6 | 93 ± 5 | 61 ± 7 | 9 ± 2 | 51 ± 16 | 68 ± 11 | 67 ± 10 | – | – | – | – | – | – | – | – | – |
| CC(=O)CN1C(=O)c2ccccc2C1=O [1-N--Phthalimidopropan-2-one] | 76 ± 4 | 91 ± 9 | 58 ± 7 | 24 ± 4 | 48 ± 10 | 80 ± 16 | 67 ± 12 | 48 ± 10 | nor did the drug demonstrate uterotropic effects | 80 ± 16 | 67 ± 12 | 58 ± 7 | no hypertophy of the adrenal | no decrease in the size of the vas deferens, vesicular or testes | > 2000 | no deaths were observed at this concentration |
| CC(=O)CCN1C(=O)CCC1=O [1-N--Succinimidobutan-3-one] | 38 ± 7 | 81 ± 7 | 58 ± 6 | 100 ± 5 | 79 ± 15 | 90 ± 9 | 88 ± 7 | – | – | – | – | – | – | – | – | – |
| O=C1CCC(=O)N1 [Succinimide] | 38 ± 3 | 98 ± 9 | 74 ± 6 | 87 ± 7 | 68 ± 7 | 78 ± 9 | 73 ± 12 | – | – | – | – | – | – | – | – | – |

Further lines, with some results ahead:

| Citrate Lyase [1] [% Control] | Fatty Acid Synthetase [3] [% Control] | Acetyl-CoA Synthetase [5] [% Control] | Acetyl-CoA Carboxylase [6] [% Control] | Compound | response vs control in vivo at 20 mg/kg/day [2, 12] [%] | response vs control in vivo at 20 mg/kg/day [4, 13] [%] | response vs control in vivo at 20 mg/kg/day [4, 14] [%] | response vs control in vivo at 20 mg/kg/day [2, 15] [%] | uterotropic effects [7] | response vs control in vivo at 20 mg/kg/day [4, 16] [%] | response vs control in vivo at 20 mg/kg/day [4, 17] [%] | in vitro AcCoA synthetase [5] [% Control] | hypertrophy of the adrenal [8] | decrease in the size of the vas deferens, vesicular or testes [9] | LD50 [10] [mg/kg] | deaths [11] |
| --- | --- | --- | --- | --- | --- | --- | --- | --- | --- | --- | --- | --- | --- | --- | --- | --- |
| 42 ± 6 | 105 ± 8 | 70 ± 8 | 8 ± 4 | O=C1NC(=O)c2ccccc21 [Phthalimide] | 44 ± 8 | 63 ± 13 | 57 ± 7 | – | – | – | – | – | – | – | – | – |
| 60 ± 5 | 103 ± 4 | 88 ± 5 | 59 ± 8 | CC(=O)CCN1C(=O)c2cccc3cccc(c23)C1=O [1-N--(1,8-Naphthalimido)butan-3-one] | 54 ± 15 | 94 ± 12 | 86 ± 9 | – | – | – | – | – | – | – | – | – |
| 87 ± 6 | 107 ± 7 | 57 ± 10 | 18 ± 4 | O=C(O)CCN1C(=O)c2ccccc2C1=O [3-N--Phthalimidopropionic Acid] | 58 ± 9 | 74 ± 10 | 55 ± 12 | 58 ± 10 | – | 74 ± 7 | 55 ± 11 | 57 ± 7 | – | – | – | – |
